Drawing on US12606541B2, “PPARg modulators and methods of use” (Eisai R&D Management Co., Ltd., priority 2020, dated 2026), this text covers AC50 and IC50 for 24 compounds.

Some results are limits rather than exact numbers.

For one test, the target named is T1, His6-TEV-PPARγ-(234-505) (Homo sapiens, UniProt P37231).
T1 construct: The His6-TEV-PPARγ-(234-505) protein for assay was expressed and purified; TEV cleavage site (N); made in house
T1 sequence (P37231 234-505): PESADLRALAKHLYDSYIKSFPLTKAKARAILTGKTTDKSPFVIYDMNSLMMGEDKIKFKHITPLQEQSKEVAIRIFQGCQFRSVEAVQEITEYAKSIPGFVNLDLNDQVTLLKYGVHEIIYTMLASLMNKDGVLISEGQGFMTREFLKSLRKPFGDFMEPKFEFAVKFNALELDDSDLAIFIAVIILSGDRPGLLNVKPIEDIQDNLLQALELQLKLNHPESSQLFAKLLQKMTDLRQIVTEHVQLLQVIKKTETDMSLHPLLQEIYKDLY
Kind of test: TR-FRET Assay to Measure Co-R Peptide Recruitment to PPARγ. The note with it: Co-R peptide (SMRT-ID2) recruitment; top final concentration 20 μM; read-out: TR-FRET i-Ag; AC50. Type of test: biochemical. In short, it runs like this:
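Corepressor recruitment is measured by adding terbium-labeled anti-His antibody and FITC SMRT-ID2 peptide, at 5 and 200 nM final, after a 20-minute room-temperature protein–compound incubation. After one further hour, signal is converted to percent response between DMSO and 500 nM T0070907 wells.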
A general note: Time-resolved FRET reads energy transfer from a long-lived donor to a nearby acceptor.

The next test concerns UM-UC-9 engineered cells. Kind of test: Cell proliferation / short-term viability assay, CellTiter-Glo 144 h. Type of test: cell-based, human. As to conditions: Homo sapiens, UM-UC-9, 144 h, read-out: CTGlo 144 h UMUC9.5, G150. In short, it runs like this: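 Viability read by CellTiter-Glo 2.0 luminescence at day 7 versus DMSO-vehicle wells and a T0 plate measured on day 0. Cells: UM-UC-9 engineered assay-ready stocks, 500 cells/well in high-glucose DMEM with 10% FBS, 37° C, 5% CO2.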

On to `COc1cc(-c2cc(C(=O)N3CCC(C(=O)NC4CCN(c5ccccc5)C4)CC3)n[nH]2)c(Cl)cn1` (stereo not drawn) [Example 117, 1-[5-(5-chloro-2-methoxypyridin-4-yl)-1H-pyrazole-3-carbonyl]-N-(1-phenylpyrrolidin-3-yl)piperidine-4-carboxamide], for which, at His6-TEV-PPARγ-(234-505), the AC50 was 56.2 nM. In addition, the IC50 in the test with UM-UC-9 engineered cells came out at 293 nM.

`COc1cc(-c2cc(C(=O)N3CCC(C(=O)NCc4cn5ccccc5n4)CC3)n[nH]2)c(Cl)cn1` [Example 119, 1-(5-(5-chloro-2-methoxypyridin-4-yl)-1H-pyrazole-3-carbonyl)-N-(imidazo[1,2-a]pyridin-2-ylmethyl)piperidine-4-carboxamide]: on His6-TEV-PPARγ-(234-505), the AC50 is 337 nM. Besides, the IC50 in the test with UM-UC-9 engineered cells is above 5000 nM.

For `COc1cc(-c2cc(C(=O)N3CCC(C(=O)NCc4ccc(Cl)cn4)CC3)n[nH]2)c(Cl)cn1` [Example 120, 1-(5-(5-chloro-2-methoxypyridin-4-yl)-1H-pyrazole-3-carbonyl)-N-((5-chloropyridin-2-yl)methyl)piperidine-4-carboxamide], at His6-TEV-PPARγ-(234-505), the AC50 was 227 nM. Also, the IC50 with UM-UC-9 engineered cells came out at 766 nM.

On to `COc1cc(-c2cc(C(=O)N3CCC(C(=O)NCc4ccc5[nH]ccc5c4)CC3)n[nH]2)c(Cl)cn1` [Example 122, N-((1H-indol-5-yl)methyl)-1-(5-(5-chloro-2-methoxypyridin-4-yl)-1H-pyrazole-3-carbonyl)piperidine-4-carboxamide], for which the AC50 on His6-TEV-PPARγ-(234-505) came to 11 nM. For the same compound, the IC50 in the test on UM-UC-9 engineered cells was determined as 66.1 nM.

For the compound `COc1cc(-c2cc(C(=O)N3CCC(C(=O)NCc4c(F)ccc(F)c4F)CC3)n[nH]2)c(Cl)cn1` [Example 123, 1-(5-(5-chloro-2-methoxypyridin-4-yl)-1H-pyrazole-3-carbonyl)-N-(2,3,6-trifluorobenzyl)piperidine-4-carboxamide], on His6-TEV-PPARγ-(234-505), the AC50 turned out to be 12.8 nM. Also, the IC50 with UM-UC-9 engineered cells came out at 100 nM.

Turning to `COc1cc(-c2cc(C(=O)N3CCC(C(=O)NCc4cn(C)nc4C)CC3)n[nH]2)c(Cl)cn1` [Example 124, 1-(5-(5-chloro-2-methoxypyridin-4-yl)-1H-pyrazole-3-carbonyl)-N-((1,3-dimethyl-1H-pyrazol-4-yl)methyl)piperidine-4-carboxamide], the AC50 at His6-TEV-PPARγ-(234-505) came out at 982 nM. In addition, the IC50 with UM-UC-9 engineered cells stood at 5020 nM.

Regarding `COc1cc(-c2cc(C(=O)N3CCC(C(=O)NCc4cc(F)ccc4Cl)CC3)n[nH]2)c(Cl)cn1` [Example 125, 1-(5-(5-chloro-2-methoxypyridin-4-yl)-1H-pyrazole-3-carbonyl)-N-(2-chloro-5-fluorobenzyl)piperidine-4-carboxamide], the AC50 at His6-TEV-PPARγ-(234-505) stood at 24.6 nM. In addition, in the test with UM-UC-9 engineered cells, the IC50 came to 301 nM.

Regarding `COc1cc(-c2cc(C(=O)N3CCC(C(=O)Nc4cnn(CC(F)(F)F)c4)CC3)n[nH]2)c(Cl)cn1` [Example 126, 1-(5-(5-chloro-2-methoxypyridin-4-yl)-1H-pyrazole-3-carbonyl)-N-(1-(2,2,2-trifluoroethyl)-1H-pyrazol-4-yl)piperidine-4-carboxamide], the AC50 at His6-TEV-PPARγ-(234-505) worked out at 707 nM. The IC50 with UM-UC-9 engineered cells worked out at 2460 nM.

For `COc1cc(-c2cc(C(=O)N3CCC(C(=O)NCc4ccc(F)cn4)CC3)n[nH]2)c(Cl)cn1` [Example 127, 1-(5-(5-chloro-2-methoxypyridin-4-yl)-1H-pyrazole-3-carbonyl)-N-((5-fluoropyridin-2-yl)methyl)piperidine-4-carboxamide], the AC50 at His6-TEV-PPARγ-(234-505) is 644 nM. The IC50 in the test with UM-UC-9 engineered cells stood at 2930 nM.

`COc1cc(-c2cc(C(=O)N3CCC(C(=O)NC4(C#N)CCC4)CC3)n[nH]2)c(Cl)cn1` [Example 128, 1-(5-(5-chloro-2-methoxypyridin-4-yl)-1H-pyrazole-3-carbonyl)-N-(1-cyanocyclobutyl)piperidine-4-carboxamide]: on His6-TEV-PPARγ-(234-505), the AC50 was determined as 864 nM. Further, the IC50 with UM-UC-9 engineered cells amounted to 2560 nM.

With `COc1cc(-c2cc(C(=O)N3CCC(C(=O)NCc4cccc(C(F)(F)F)n4)CC3)n[nH]2)c(Cl)cn1` [Example 129, 1-(5-(5-chloro-2-methoxypyridin-4-yl)-1H-pyrazole-3-carbonyl)-N-((6 (trifluoromethyl)pyridin-2-yl)methyl)piperidine-4-carboxamide], the AC50 at His6-TEV-PPARγ-(234-505) came out at 273 nM. In addition, in the test with UM-UC-9 engineered cells, the IC50 was found to be 1020 nM.

With `COc1cc(-c2cc(C(=O)N3CCC(C(=O)NCc4ncccc4C(F)(F)F)CC3)n[nH]2)c(Cl)cn1` [Example 130, 1-(5-(5-chloro-2-methoxypyridin-4-yl)-1H-pyrazole-3-carbonyl)-N-((3-(trifluoromethyl)pyridin-2-yl)methyl)piperidine-4-carboxamide], the AC50 at His6-TEV-PPARγ-(234-505) was determined as 75.9 nM. The IC50 with UM-UC-9 engineered cells was 685 nM.

Take `COc1cc(-c2cc(C(=O)N3CCC(C(=O)NCc4cnccc4C)CC3)n[nH]2)c(Cl)cn1` [Example 131, 1-(5-(5-chloro-2-methoxypyridin-4-yl)-1H-pyrazole-3-carbonyl)-N-((4-methylpyridin-3-yl)methyl)piperidine-4-carboxamide]: on His6-TEV-PPARγ-(234-505), the AC50 amounted to 494 nM. Further, the IC50 in the test on UM-UC-9 engineered cells is 2610 nM.

As to `COc1cc(-c2cc(C(=O)N3CCC(C(=O)N[C@@H]4C[C@H]4c4ccccc4)CC3)n[nH]2)c(Cl)cn1` [Example 133, 1-(5-(5-chloro-2-methoxypyridin-4-yl)-1H-pyrazole-3-carbonyl)-N-((1R,2S)-2-phenylcyclopropyl)piperidine-4-carboxamide], the AC50 at His6-TEV-PPARγ-(234-505) was determined as 292 nM. In addition, the IC50 in the test on UM-UC-9 engineered cells was determined as 1740 nM.

For the compound `COc1cc(-c2cc(C(=O)N3CCC(C(=O)NCC4(O)CCCCC4)CC3)n[nH]2)c(Cl)cn1` [Example 134, 1-(5-(5-chloro-2-methoxypyridin-4-yl)-1H-pyrazole-3-carbonyl)-N-((1-hydroxycyclohexyl)methyl)piperidine-4-carboxamide], the AC50 on His6-TEV-PPARγ-(234-505) was determined as 238 nM. For the same compound, in the test with UM-UC-9 engineered cells, the IC50 was 1090 nM.

In the case of `COc1cc(-c2cc(C(=O)N3CCC(C(=O)NCc4cnc(C)o4)CC3)n[nH]2)c(Cl)cn1` [Example 136, 1-(5-(5-chloro-2-methoxypyridin-4-yl)-1H-pyrazole-3-carbonyl)-N-((2-methyloxazol-5-yl)methyl)piperidine-4-carboxamide], the AC50 on His6-TEV-PPARγ-(234-505) was found to be 887 nM. Moreover, in the test on UM-UC-9 engineered cells, the IC50 amounted to 6100 nM.

Regarding `COc1cc(-c2cc(C(=O)N3CCC(C(=O)NCc4cccc5ccnn45)CC3)n[nH]2)c(Cl)cn1` [Example 137, 1-(5-(5-chloro-2-methoxypyridin-4-yl)-1H-pyrazole-3-carbonyl)-N-(pyrazolo[1,5-a]pyridin-7-ylmethyl)piperidine-4-carboxamide], the AC50 on His6-TEV-PPARγ-(234-505) came to 130 nM. In addition, the IC50 in the test with UM-UC-9 engineered cells was 678 nM.

As to `COc1cc(-c2cc(C(=O)N3CCC(C(=O)NCc4ncc(Cl)cn4)CC3)n[nH]2)c(Cl)cn1` [Example 138, 1-(5-(5-chloro-2-methoxypyridin-4-yl)-1H-pyrazole-3-carbonyl)-N-((5-chloropyrimidin-2-yl)methyl)piperidine-4-carboxamide], the AC50 on His6-TEV-PPARγ-(234-505) stood at 501 nM. The IC50 with UM-UC-9 engineered cells stood at 1470 nM.

For `COc1cc(-c2cc(C(=O)N3CCC(C(=O)NCc4ccc(C(F)(F)F)cn4)CC3)n[nH]2)c(Cl)cn1` [Example 139, 1-(5-(5-chloro-2-methoxypyridin-4-yl)-1H-pyrazole-3-carbonyl)-N-((5-(trifluoromethyl)pyridin-2-yl)methyl)piperidine-4-carboxamide], on His6-TEV-PPARγ-(234-505), the AC50 was found to be 336 nM. Moreover, the IC50 in the test with UM-UC-9 engineered cells is 1790 nM.

With `COc1cc(-c2cc(C(=O)N3CCC(C(=O)NCc4ncccc4Cl)CC3)n[nH]2)c(Cl)cn1` [Example 140, 1-(5-(5-chloro-2-methoxypyridin-4-yl)-1H-pyrazole-3-carbonyl)-N-((3-chloropyridin-2-yl)methyl)piperidine-4-carboxamide], at His6-TEV-PPARγ-(234-505), the AC50 stood at 85.4 nM. Besides, the IC50 with UM-UC-9 engineered cells is 634 nM.

For `COc1cc(-c2cc(C(=O)N3CCC(C(=O)NCc4cc(C)n(C)n4)CC3)n[nH]2)c(Cl)cn1` [Example 141, 1-(5-(5-chloro-2-methoxypyridin-4-yl)-1H-pyrazole-3-carbonyl)-N-((1,5-dimethyl-1H-pyrazol-3-yl)methyl)piperidine-4-carboxamide], the AC50 on His6-TEV-PPARγ-(234-505) came out at 679 nM. Also, the IC50 in the test on UM-UC-9 engineered cells worked out at 2600 nM.

For the compound `COc1cc(-c2cc(C(=O)N3CCC(C(=O)NC(C)COc4ccc(Cl)cc4)CC3)n[nH]2)c(Cl)cn1` (stereo not drawn) [Example 142, 1-(5-(5-chloro-2-methoxypyridin-4-yl)-1H-pyrazole-3-carbonyl)-N-(1-(4-chlorophenoxy)propan-2-yl)piperidine-4-carboxamide], on His6-TEV-PPARγ-(234-505), the AC50 was 904 nM. Further, in the test on UM-UC-9 engineered cells, the IC50 is 3140 nM.

Regarding `COc1cc(-c2cc(C(=O)N3CCC(C(=O)NC4CCCC(F)(F)C4)CC3)n[nH]2)c(Cl)cn1` (stereo not drawn) [Example 143, 1-(5-(5-chloro-2-methoxypyridin-4-yl)-1H-pyrazole-3-carbonyl)-N-(3,3-difluorocyclohexyl)piperidine-4-carboxamide], at His6-TEV-PPARγ-(234-505), the AC50 was found to be 910 nM. For the same compound, in the test on UM-UC-9 engineered cells, the IC50 was 3310 nM.

Consider `COc1cc(-c2cc(C(=O)N3CCC(C(=O)NCc4ncccc4F)CC3)n[nH]2)c(Cl)cn1` [Example 146, 1-(5-(5-chloro-2-methoxypyridin-4-yl)-1H-pyrazole-3-carbonyl)-N-((3-fluoropyridin-2-yl)methyl)piperidine-4-carboxamide], for which, at His6-TEV-PPARγ-(234-505), the AC50 turned out to be 262 nM. For the same compound, the IC50 in the test on UM-UC-9 engineered cells was 1410 nM.
